From patent US8084470B2, “Substituted nicotinamide compounds and uses thereof” (Gruenenthal GmbH, priority 2007, dated 2011)

Each molecule was assayed against hKCNQ2/3 (Homo sapiens, UniProt O43525+O43526) (assay: Fluorescence assay using a voltage sensitive dye).
Format: cell-based
Parameters: expressed in transfected cells; host or cells: CHO-K1
Description: Biological Data Fluorescence Assay Using a Voltage Sensitive Dye
Human CHO-K1 cells expressing KCNQ2/3 channels are cultivated adherently at 37° C., 5% CO2 and 95% humidity in cell culture bottles (e.g. 80 cm^2 TC flasks, Nunc) with DMEM-high glucose (Sigma Aldrich, D7777) including 10% FCS (PAN Biotech, e.g. 3302-P270521) or alternatively with MEM Alpha Medium (1×, liquid, Invitrogen, #22571), 10% fetal calf serum (FCS) (Invitrogen, #10270-106, heat-inactivated) and the necessary selection antibiotics.
Before being distributed for the measurements, the cells are washed with a 1×DPBS buffer without Ca^2+/Mg^2+ (e.g. Invitrogen, #14190-094) and detached from the bottom of the culture vessel by means of Accutase (PAA Laboratories, #L11-007) (incubation with Accutase for 15 min at 37° C.). The cell count then present is determined using a CASY™ cell counter (TCC model, Schärfe System) in order subsequently to apply, according to density optimization for the individual cell line, 20,000-30,000 cells/well/100 μl of the described nutrient medium to 96-well measuring plates of the Corning™ CellBIND™ type (Flat Clear Bottom Black Polystyrene Microplates, #3340). Incubation is then carried out for one hour at room temperature, without gassing or adjusting the humidity, followed by incubation for 24 hours at 37° C., 5% CO2 and 95% humidity.
The voltage-sensitive fluorescent dye from the Membrane Potential Assay Kit (Red™ Bulk format part R8123 for FLIPR, MDS Analytical Technologies™) is prepared by dissolving the contents of a vessel Membrane Potential Assay Kit Red Component A in 200 ml of extracellular buffer (ES buffer, 120 mM NaCl, 1 mM KCl, 10 mM HEPES, 2 mM CaCl2, 2 mM MgCl2, 10 mM glucose; pH 7.4). After removal of the nutrient medium, the cells are washed with 200 μl of ES buffer, then covered with a layer of 100 μl of the dye solution prepared above and incubated for 45 min at room temperature with the exclusion of light.
The fluorescence measurements are carried out with a BMG Labtech FLUOstar™ or BMG Labtech NOVOstar™ or BMG Labtech POLARstar™ instrument (525 nm excitation, 560 nm emission, Bottom Read mode). After incubation of the dye, 50 μl of the test substances in the desired concentrations, or 50 μl of ES buffer for control purposes, are introduced into separate cavities of the measuring plate and incubated for 30 min at room temperature while being shielded from light. The fluorescence intensity of the dye is then measured for 5 min and the fluorescence value F1 of each well is thus determined at a given, constant time. 15 μL of a 100 mM KCl solution ([…]) are then added to each well. The change in fluorescence is subsequently measured until all the relevant measured values have been obtained (mainly 5-30 min). At a given time after KCl application, a fluorescence value F2 is determined, in this case at the time of the fluorescence peak.
For calculation, the fluorescence intensity F2 is compared with the fluorescence intensity F1, and the agonistic activity of the target compound on the potassium channel is determined therefrom. F2 and F1 are calculated as follows:
[formula] In order to determine whether a substance has an agonistic activity,
[formula] for example, can be compared with
[formula] of control cells.
[formula] is determined by adding to the reaction batch only the buffer solution instead of the substance to be tested, determining the value F1K of the fluorescence intensity, adding the potassium ions as described above and measuring a value F2K of the fluorescence intensity. Then F2K and F1K are calculated as follows:
[formula] A substance has an agonistic activity on the potassium channel when
[formula] is greater than
[formula] Independently of the comparison of
[formula] it is also possible to conclude that a target compound has agonistic activity if an increase in
[formula] is to be observed as the dosage of the target compound increases. […]

SMILES | EC50 [nM]
O=C(NCc1ccc(SC(F)(F)F)cc1)c1cccnc1SCCS(=O)(=O)c1ccccc1 [Example 64, 2-(2-(phenylsulfonyl)ethylthio)-N-(4-(trifluoromethylthio)benzyl)-nicotinamide] | 880
CN(Cc1ccccc1)C(=O)c1cccnc1SCCS(=O)(=O)c1ccccc1 [Example 55, N-benzyl-N-methyl-2-(2-(phenylsulfonyl)ethylthio)nicotinamide] | 16500
O=C(NCc1cc(F)cc(F)c1)c1cccnc1SCCS(=O)(=O)c1ccccc1 [Example 8, N-(3,5-difluorobenzyl)-2-(2-(phenylsulfonyl)ethylthio)nicotinamide] | 1280
O=C(NCc1ccc(Cl)c(Cl)c1)c1cccnc1SCCS(=O)(=O)c1ccccc1 [Example 19, N-(3,4-dichlorobenzyl)-2-(2-(phenylsulfonyl)ethylthio)nicotinamide] | 1270
CC(NC(=O)c1cccnc1SCCS(=O)(=O)c1ccccc1)c1cccc(C(F)(F)F)c1 (stereo not shown) [Example 57, 2-(2-(phenylsulfonyl)ethylthio)-N-(1-(3-(trifluoromethyl)phenyl)ethyl)-nicotinamide] | 5700
CN(Cc1cccc(Br)c1)C(=O)c1cccnc1SCCS(=O)(=O)c1ccccc1 [Example 13, N-(3-bromobenzyl)-N-methyl-2-(2-(phenylsulfonyl)ethylthio)nicotinamide] | 1400
Cc1ccc(S(=O)(=O)CCSc2ncccc2C(=O)NCc2ccc(F)cc2)cc1 [Example 49, N-(4-fluorobenzyl)-2-(2-tosylethylthio)nicotinamide] | 7600
Cc1ccc(S(=O)(=O)CCSc2ncccc2C(=O)NCc2cccc(Cl)c2)cc1 [Example 51, N-(3-chlorobenzyl)-2-(2-tosylethylthio)nicotinamide] | 4120
O=C(NCc1cccs1)c1cccnc1SCCS(=O)(=O)c1ccc(C(F)(F)F)cc1 [Example 102, N-(2-thienylmethyl)-2-[2-[4-(trifluoromethyl)phenyl]sulfonylethylthio]-nicotinamide] | 197
O=C(NCc1cccc(F)c1)c1cccnc1SCCS(=O)(=O)c1ccccc1 [Example 15, N-(3-fluorobenzyl)-2-(2-(phenylsulfonyl)ethylthio)nicotinamide] | 2480
Cc1ccc(S(=O)(=O)CCSc2ncccc2C(=O)NCc2cccc(C(F)(F)F)c2)cc1 [Example 52, 2-(2-tosylethylthio)-N-(3-(trifluoromethyl)benzyl)nicotinamide] | 1820
Cc1ccc(S(=O)(=O)CCSc2ncccc2C(=O)NCc2cccs2)cc1 [Example 36, N-(thiophen-2-ylmethyl)-2-(2-tosylethylthio)nicotinamide] | 4110
CC(C)(C)CCNC(=O)c1cccnc1SCCS(=O)(=O)c1ccccc1 [Example 107, 2-[2-(benzenesulfonyl)ethylthio]-N-(3,3-dimethylbutyl)-nicotinamide] | 1420

The next lines start with the values.

EC50 [nM] | SMILES
9590 | CC(C)(C)CNC(=O)c1cccnc1SCCS(=O)(=O)c1ccccc1 [Example 60, N-(neopentyl)-2-(2-(phenylsulfonyl)ethylthio)nicotinamide]
75 | O=C(NCc1cccs1)c1cccnc1SCCSc1ccccc1 [Example 109, 2-[2-(phenylthio)ethylthio]-N-(2-thienylmethyl)-nicotinamide]
503 | O=C(NCc1cccs1)c1cccnc1SCCS(=O)(=O)c1ccc(F)cc1 [Example 100, 2-[2-(4-fluorophenyl)sulfonylethylthio]-N-(2-thienylmethyl)-nicotinamide]
2390 | Cc1ccc(S(=O)(=O)CCSc2ncccc2C(=O)NCc2cc(F)cc(F)c2)cc1 [Example 41, N-(3,5-difluorobenzyl)-2-(2-tosylethylthio)nicotinamide]
4390 | O=C(NCc1ccco1)c1cccnc1SCCS(=O)(=O)c1ccccc1 [Example 62, N-(furan-2-ylmethyl)-2-(2-(phenylsulfonyl)ethylthio)nicotinamide]
1280 | O=C(NCc1cccc(Cl)c1)c1cccnc1SCCS(=O)(=O)c1ccccc1 [Example 25, N-(3-chlorobenzyl)-2-(2-(phenylsulfonyl)ethylthio)nicotinamide]
